# Source: US11840495B2, “Compositions and methods related to di-substituted bicyclo[2.2.1] heptanamine-containing compounds” (The Broad Institute, Inc., priority 2020, dated 2023)
# pEC50: −log10 of the molar value. Structures can show the parent of a compound that is named as a salt. Where two headings read alike, the source gives them in different places.
# How the values were obtained:
# MUC1-wt = test: Immunofluorescence imaging of MUC1-wt in P cells (Example 2); format: cell-based; details: for pEC50: 48 hr incubation, MUC1-wt; for WT EMax / WT ECMax (%): 48 hr; for WT EMax: DMSO = 0, JQ1 = −100% activity, in %; for WT ECMax (%): DMSO = 0, JQ1 (250 nM) = −100% activity
# Procedure: (§1) P cells were seeded 24 hr prior to compound treatment at a density of 12,000 cells/well in 384 well Cell Carrier Ultra plates (6057308, Perkin Elmer), pre-coated with 0.25 mg/mL Synthemax II SC Substrate (3535, Corning). Compounds were used at 5 doses (35, 3.5, 0.35, 0.035 and 0.0035 μM) for the primary screen and 10 doses (16, 5.6, 1.8, 0.6, 0.21, 0.07, 0.02, 0.008, 0.002 and 0.0008 μM) for the following screens. The compounds, in two replicates, were transferred from compound source plates to the cell plates using the HighRes Pin Tool. DMSO was used as a negative control and JQ1 (250 nM) (a bromodomain inhibitor) was chosen as a positive control, based on earlier studies showing its potent effect on reducing total MUC1 mRNA levels (data not shown). After 48 hr incubation, cells were fixed for 20 min in 4% PFA (Electron Microscopy Sciences) in PBS, washed twice, then permeabilized (10 min) with 0.5% Triton-X100 (X100-100ML, Sigma-Aldrich) in PBS and washed once more. Cells were blocked for 10 min at RT with Blocking solution (100 mM Tris HCL pH8; 150 mM NaCL; 5 g/L Blocking Reagent [11096176001, Roche]), then incubated 90 min at RT with one of the following primary antibodies in Roche Blocking solution: 1:500, monoclonal Fab-A-VSH anti-MUC1-fs, AbD22655.2, Bio-Rad; 1:2000, monoclonal mouse anti-MUC1 (214D4), 05-652-KC, Millipore; 1:1000, monoclonal, Rabbit anti-GM130 (D6B1) XP, 12480, Cell signaling technology. The primary antibody cocktail was incubated at RT for 1.5 hr, followed by four PBS wash cycles. The secondary antibody cocktail contained four components that were all prepared at a 1:1000 dilution in the Roche blocking solution and consisted of Alexa Fluor® 488-conjugated AffiniPure F(ab′)2 Fragment Goat anti-Human IgG, 109-546-097, Jackson Immunoresearch; Alexa Fluor® 647-conjugated Goat anti-Rabbit IgG, A-21246, Thermo Fisher Scientific®; Alexa Fluor® 546 Goat anti-mouse IgG, A-21123, Thermo Fisher Scientific® and Hoechst 33342 stain (62249, Thermo Fisher Scientific®). The secondary antibody cocktail was incubated at RT for 45 min, followed by four PBS wash cycles. Finally, plates were sealed with a Plate Loc plate and stored in Liconic incubator at 10° C. until imaging. Following image analysis, three parameters were selected, i) MUC1-fs and ii) MUC1-wt total cytoplasm intensity (averaged per cell) and iii) cell number as was detected by Hoechst 33342 stained nuclei. The levels of MUC1-fs and MUC1-wt found following DMSO and JQ1 were defined as 0 and −100% activity, respectively. The values obtained for all compounds were normalized accordingly. Cell number was normalized to DMSO control.
# MUC1-fs = test: Immunofluorescence imaging of MUC1-fs in P cells (Example 2); format: cell-based; details: for pEC50: 48 hr incubation, MUC1-fs; for Emax / ECMax (%): 48 hr; for Emax: DMSO = 0, JQ1 = −100% activity, in %; for ECMax (%): DMSO = 0, JQ1 (250 nM) = −100% activity
# Procedure: as §1
SMILES,pEC50 (MUC1-wt; read-out: WT EC50),WT EMax (MUC1-wt),pEC50 (MUC1-fs; read-out: EC50),Emax (MUC1-fs),pEC50 (MUC1-wt; read-out: WT EC50 (Cytoplasm)),WT ECMax (%) (MUC1-wt),pEC50 (MUC1-fs; read-out: EC50(Spot)),ECMax (%) (MUC1-fs)
"CC1CCC2(CC1C)C1CCC(C1)C2N (racemic) [Compound 240, rac-3′,4′-dimethylspiro[bicyclo[2.2.1]heptane-2,1′-cyclohexan]-3-amine]",< 4.80,−11.1,< 4.80,−34.8,–,–,–,–
"Cl.N[C@@H]1[C@@H]2CC[C@@H](C2)C12CC1CCC2CC1 (stereo partly drawn) [Compound 239, (1S,3R,4R)-spiro[bicyclo[2.2.1]heptane-2,2′-bicyclo[2.2.2]octan]-3-amine hydrochloride]",4.87,62.7,5.64,−83.1,–,–,–,–
"Cl.N[C@@H]1[C@@H]2CC[C@@H](C2)C12CCCC(C(=O)N1CCOCC1)C2 (stereo partly drawn) [Compound 226, ((1S,3R,4R)-3-aminospiro[bicyclo[2.2.1]heptane-2,1′-cyclohexan]-3′-yl)(morpholino)methanone hydrochloride]",< 4.80,9.0,< 4.80,7.8,–,–,–,–
"CC(=O)OC1CC2(CC1OC(C)=O)C1CCC(C1)C2N.Cl (racemic) [Compound 230, rac-3-aminospiro[bicyclo[2.2.1]heptane-2,1′-cyclopentane]-3′,4′-diyl diacetate hydrochloride]",< 4.80,−16.1,< 4.80,−12.8,–,–,–,–
"Cl.N[C@H]1[C@@H]2CC[C@@H](C2)C12CCCCC2 [Compound 231, (1S,3S,4R)-spiro[bicyclo[2.2.1]heptane-2,1′-cyclohexan]-3-amine hydrochloride]",< 4.80,−7.0,5.79,−76.5,–,–,–,–
C[C@H]1CC[C@]2(C1)[C@@H]1CC[C@@H](C1)[C@@H]2N.Cl [Compound 210-P2-B],–,–,–,–,< 4.80,30.21%,7.00,−66.02%
CCC1(CC)[C@H]2CC[C@H](C2)[C@H]1N [Compound 204-P1],–,–,–,–,5.48,197.55%,7.52,−118.54%
C[C@H]1CCC[C@]2(C1)[C@H]1CC[C@H](C1)[C@H]2N.Cl [Compound 214-P1-B],–,–,–,–,< 4.49,−12.08%,4.92,−58.73%
CCCCC1(C)C2CCC(C2)C1N (stereo not drawn) [Compound 206-P2],–,–,–,–,< 4.49,−3.86%,< 4.49,−10.5%
"CC1(C)[C@@H]2CC[C@@H](C2)[C@@H]1N (single isomer, unassigned) [Compound 201-P2, hydrochloride]",–,–,–,–,4.92,68.51%,6.33,−85.5%
"Cl.N[C@@H]1[C@@H]2CC[C@@H](C2)C12CCC2 (racemic) [Compound 208, rac-spiro[bicyclo[2.2.1]heptane-3,1′-cyclobutan]-2-endo-amine hydrochloride]",–,–,–,–,< 5.25,~125%,6.89,−65.35%
"Cl.N[C@@H]1[C@@H]2CC[C@@H](C2)C12CCC[C@H](O)C2 (stereo partly drawn) [Compound 241-A, (1S,3R,3′S,4R)-3-aminospiro[bicyclo[2.2.1]heptane-2,1′-cyclohexan]-3′-ol hydrochloride]",< 4.80,−5.7,< 4.80,−11.4,–,–,–,–
CCC1(CC)[C@H]2CC[C@H](C2)[C@H]1N.Cl (racemic) [Compound 204],–,–,–,–,6.00,190.26%,8.00,−85.02%
"CC1(C)[C@H]2CC[C@H](C2)[C@H]1N (single isomer, unassigned) [Compound 201-P1, hydrochloride]",–,–,–,–,4.99,63%,7.06,−94.91%
"Cl.NC(=O)C1CCCC2(C1)C1CCC(C1)C2N (racemic) [Compound 224, rac-3-aminospiro[bicyclo[2.2.1]heptane-2,1′-cyclohexane]-3′-carboxamide hydrochloride]",< 4.80,−24.4,< 4.80,−17.0,–,–,–,–
"NC1C2CCC(C2)C12CCC(O)C2 (racemic) [Compound 249A, rac-3-aminospiro[bicyclo[2.2.1]heptane-2,1′-cyclopentan]-3′-ol]",< 4.80,−7.2,5.66,−98.1,–,–,–,–
"NC1C2CCC(C2)C12CC1CCC2C1 (racemic) [Compound 238-B, rac-2,2′-spirobi[bicyclo[2.2.1]heptan]-3-amine]",5.25,40.7,7.54,−106.4,–,–,–,–
CCC1(CC)[C@@H]2CC[C@@H](C2)[C@@H]1N [Compound 204-P2],–,–,–,–,5.96,65.02%,7.70,−90.34%
"CN(C)CC1CCCC2(C1)C1CCC(C1)C2N.Cl (racemic) [Compound 223, rac-3′-((dimethylamino)methyl)spiro[bicyclo[2.2.1]heptane-2,1′-cyclohexan]-3-amine hydrochloride]",< 4.80,25.7,< 4.80,−12,–,–,–,–
"NC1C2CCC(C2)C12CCC(O)C2 (racemic) [Compound 249B, rac-3-aminospiro[bicyclo[2.2.1]heptane-2,1′-cyclopentan]-3′-ol]",< 4.80,−6.7,5.38,−72.5,–,–,–,–
CC[C@]1(C)[C@H]2CC[C@H](C2)[C@H]1N.Cl (racemic) [Compound 202-rac],–,–,–,–,5.68,125.82%,7.30,−76.19%
"Cl.NC1C2CCC(C2)C12CCOCC2 (racemic) [Compound 235, rac-tetrahydrospiro[bicyclo[2.2.1]heptane-2,4′-pyran]-3-amine hydrochloride]",< 4.80,−6.6,5.75,−88.6,–,–,–,–
C[C@@]1(Cc2ccccc2)[C@H]2CC[C@H](C2)[C@H]1N.Cl (racemic) [Compound 207],–,–,–,–,< 4.49,5.9%,< 4.49,−25.6%
"Cl.N[C@H]1[C@@H]2CC[C@@H](C2)C12CCCC(C(=O)N1CCOCC1)C2 (stereo partly drawn) [Compound 226-1, ((1S,3S,4R)-3-aminospiro[bicyclo[2.2.1]heptane-2,1′-cyclohexan]-3′-yl)(morpholino)methanone hydrochloride]",< 4.80,−24.5,< 4.80,−32.0,–,–,–,–
